According to patent US20080200454A1, “CARBON-LINKED TETRAHYDRO-PYRAZOLO-PYRIDINE MODULATORS OF CATHEPSIN S” (priority 2007, published 2008):
Read-outs that look alike come from different tables or passages of the source.

Target: Recombinant human cathepsin S (CatS) (Homo sapiens, UniProt P25774)
Assay: Recombinant human cathepsin S (CatS) inhibition assay, fluorogenic substrate Z-Valine-Valine-Arginine-AMC;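 further: Baculovirus-expressed CatS in pH 5.0 sodium acetate buffer with DTT and NaCl, fluorescence read each minute over 20 min, inhibition derived from rate slope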

Sequence of Recombinant human cathepsin S (CatS) (P25774 115-331): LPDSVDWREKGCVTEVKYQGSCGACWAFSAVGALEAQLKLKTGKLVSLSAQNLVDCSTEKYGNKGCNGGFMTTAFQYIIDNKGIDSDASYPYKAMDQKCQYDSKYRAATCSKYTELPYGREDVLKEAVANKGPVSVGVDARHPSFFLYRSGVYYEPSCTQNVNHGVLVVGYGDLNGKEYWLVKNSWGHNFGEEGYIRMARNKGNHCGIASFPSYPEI

Compound	IC50 [µM]	IC50 (CatS IC50) [µM]
NC(=O)N1CCc2c(c(-c3ccc(Cl)c(C#Cc4ccc(Cl)cc4)c3)nn2C[C@@H](O)CN2CCC(C3CCNCC3)CC2)C1 [Example 238, 1-[(2S)-3-(4,4′-Bipiperidin-1-yl)-2-hydroxypropyl]-3-{4-chloro-3-[(4-chlorophenyl)ethynyl]phenyl}-1,4,6,7-tetrahydro-5H-pyrazolo[4,3-c]pyridine-5-carboxamide]	0.003	–
CC(C)CC#Cc1cc(-c2nn(C[C@@H](O)CN3CCC(C4CCNCC4)CC3)c3c2CN(S(C)(=O)=O)CC3)ccc1Cl [Example 239, (2S)-1-(4,4′-Bipiperidin-1-yl)-3-{3-[4-chloro-3-(4-methylpent-1-yn-1-yl)phenyl]-5-(methylsulfonyl)-4,5,6,7-tetrahydro-1H-pyrazolo[4,3-c]pyridin-1-yl}propan-2-ol]	–	0.61
CN1CCC(C2CCN(C[C@H](O)Cn3nc(-c4ccc(Cl)c(C#Cc5ccc(Cl)cc5)c4)c4c3CCN(S(C)(=O)=O)C4)CC2)CC1 [Example 240, (2S)-1-[3-{4-Chloro-3-[(4-chlorophenyl)ethynyl]phenyl}-5-(methylsulfonyl)-4,5,6,7-tetrahydro-1H-pyrazolo[4,3-c]pyridin-1-yl]-3-(1′-methyl-4,4′-bipiperidin-1-yl)propan-2-ol]	0.01	–
CC(=O)N1CCC(C2CCN(C[C@H](O)Cn3nc(-c4ccc(Cl)c(C#Cc5ccc(Cl)cc5)c4)c4c3CCN(S(C)(=O)=O)C4)CC2)CC1 [Example 241, (2S)-1-(1′-Acetyl-4,4′-bipiperidin-1-yl)-3-[3-{4-chloro-3-[(4-chlorophenyl)ethynyl]phenyl}-5-(methylsulfonyl)-4,5,6,7-tetrahydro-1H-pyrazolo[4,3-c]pyridin-1-yl]propan-2-ol]	0.03	–
CC(C)(C)OC(=O)N1CCC(C2CCN(C[C@H](O)Cn3nc(-c4ccc(Cl)c(CCc5ccc(Cl)cc5)c4)c4c3CCN(C(N)=O)C4)CC2)CC1 [Example 242, 1,1-Dimethylethyl 1′-{(2S)-3-[5-(aminocarbonyl)-3-{4-chloro-3-[2-(4-chlorophenyl)ethyl]phenyl}-4,5,6,7-tetrahydro-1H-pyrazolo[4,3-c]pyridin-1-yl]-2-hydroxypropyl}-4,4′-bipiperidine-1-carboxylate]	0.03	–
C[C@H]1COCCN1CCCn1nc(-c2ccc(Cl)c(CCc3ccc(CNCc4ccc(Cl)cc4)cc3)c2)c2c1CCN(C(=O)C(N)=O)C2 [Example 243, 2-[3-(4-Chloro-3-{2-[4-({[(4-chlorophenyl)methyl]amino}methyl)phenyl]ethyl}phenyl)-1-{3-[(3S)-3-methylmorpholin-4-yl]propyl}-1,4,6,7-tetrahydro-5H-pyrazolo[4,3-c]pyridin-5-yl]-2-oxoacetamide]	0.04	–
C[C@H]1COCCN1CCCn1nc(-c2ccc(Cl)c(CCc3ccc(CNCc4ccc(Cl)cc4)cc3)c2)c2c1CCN(C(N)=O)C2 [Example 244, 3-(4-Chloro-3-{2-[4-({[(4-chlorophenyl)methyl]amino}methyl)phenyl]ethyl}phenyl)-1-{3-[(3S)-3-methylmorpholin-4-yl]propyl}-1,4,6,7-tetrahydro-5H-pyrazolo[4,3-c]pyridine-5-carboxamide]	–	0.06
CC(C)(C)OC(=O)N1CCC(C2CCN(C[C@H](O)Cn3nc(-c4ccc(Cl)c(CCc5ccc(Cl)cc5)c4)c4c3CCN(S(C)(=O)=O)C4)CC2)CC1 [Example 245, 1,1-Dimethylethyl 1′-{(2S)-3-[3-{4-chloro-3-[2-(4-chlorophenyl)ethyl]phenyl}-5-(methylsulfonyl)-4,5,6,7-tetrahydro-1H-pyrazolo[4,3-c]pyridin-1-yl]-2-hydroxypropyl}-4,4′-bipiperidine-1-carboxylate]	0.03	–
CS(=O)(=O)N1CCc2c(c(-c3ccc(Cl)c(CCc4ccc(Cl)cc4)c3)nn2C[C@@H](O)CN2CCC(C3CCNCC3)CC2)C1 [Example 246, (2S)-1-(4,4′-Bipiperidin-1-yl)-3-[3-{4-chloro-3-[2-(4-chlorophenyl)ethyl]phenyl}-5-(methylsulfonyl)-4,5,6,7-tetrahydro-1H-pyrazolo[4,3-c]pyridin-1-yl]propan-2-ol]	0.01	–
CC(=O)N1CCC(C2CCN(C[C@H](O)Cn3nc(-c4ccc(Cl)c(CCc5ccc(Cl)cc5)c4)c4c3CCN(S(C)(=O)=O)C4)CC2)CC1 [Example 247, (2S)-1-(1′-Acetyl-4,4′-bipiperidin-1-yl)-3-[3-{4-chloro-3-[2-(4-chlorophenyl)ethyl]phenyl}-5-(methylsulfonyl)-4,5,6,7-tetrahydro-1H-pyrazolo[4,3-c]pyridin-1-yl]propan-2-ol]	–	0.07
CN1CCC(C2CCN(C[C@H](O)Cn3nc(-c4ccc(Cl)c(CCc5ccc(Cl)cc5)c4)c4c3CCN(S(C)(=O)=O)C4)CC2)CC1 [Example 248, (2S)-1-[3-{4-Chloro-3-[2-(4-chlorophenyl)ethyl]phenyl}-5-(methylsulfonyl)-4,5,6,7-tetrahydro-1H-pyrazolo[4,3-c]pyridin-1-yl]-3-(1′-methyl-4,4′-bipiperidin-1-yl)propan-2-ol]	0.02	–
NC(=O)C(=O)N1CCc2c(c(-c3ccc(Cl)c(C#Cc4ccc(CNCc5ccc(Cl)cc5)cc4)c3)nn2C[C@@H](O)CN2CCSCC2)C1 [Example 249, (S)-2-[3-(4-Chloro-3-{4-[(4-chloro-benzylamino)-methyl]-phenylethynyl}-phenyl)-1-(2-hydroxy-3-thiomorpholin-4-yl-propyl)-1,4,6,7-tetrahydro-pyrazolo[4,3-c]pyridin-5-yl]-2-oxo-acetamide]	0.05	–
NC(=O)C(=O)N1CCc2c(c(-c3ccc(Cl)c(C#Cc4ccc(CNCc5ccc(Cl)cc5)cc4)c3)nn2C[C@H](O)CN2CCSCC2)C1 [Example 250, (R)-2-[3-(4-Chloro-3-{4-[(4-chloro-benzylamino)-methyl]-phenylethynyl}-phenyl)-1-(2-hydroxy-3-thiomorpholin-4-yl-propyl)-1,4,6,7-tetrahydro-pyrazolo[4,3-c]pyridin-5-yl]-2-oxo-acetamide]	–	0.08
NC(=O)N1CCc2c(c(-c3ccc(Cl)c(C#Cc4ccc(CNCc5ccc(Cl)cc5)cc4)c3)nn2C[C@@H](O)CN2CCSCC2)C1 [Example 251, (S)-3-(4-Chloro-3-{4-[(4-chloro-benzylamino)-methyl]-phenylethynyl}-phenyl)-1-(2-hydroxy-3-thiomorpholin-4-yl-propyl)-1,4,6,7-tetrahydro-pyrazolo[4,3-c]pyridine-5-carboxylic acid amide]	0.04	–
NC(=O)N1CCc2c(c(-c3ccc(Cl)c(C#Cc4ccc(CNCc5ccc(Cl)cc5)cc4)c3)nn2C[C@H](O)CN2CCSCC2)C1 [Example 252, (R)-3-(4-Chloro-3-{4-[(4-chloro-benzylamino)-methyl]-phenylethynyl}-phenyl)-1-(2-hydroxy-3-thiomorpholin-4-yl-propyl)-1,4,6,7-tetrahydro-pyrazolo[4,3-c]pyridine-5-carboxylic acid amide]	–	0.11
NC(=O)C(=O)N1CCc2c(c(-c3ccc(Cl)c(C#Cc4ccc(CNCc5ccc(Cl)cc5)cc4)c3)nn2C[C@@H](O)CN2CCOCC2)C1 [Example 253, (S)-2-[3-(4-Chloro-3-{4-[(4-chloro-benzylamino)-methyl]-phenylethynyl}-phenyl)-1-(2-hydroxy-3-morpholin-4-yl-propyl)-1,4,6,7-tetrahydro-pyrazolo[4,3-c]pyridin-5-yl]-2-oxo-acetamide]	0.06	–
NC(=O)C(=O)N1CCc2c(c(-c3ccc(Cl)c(C#Cc4ccc(CNCc5ccc(Cl)cc5)cc4)c3)nn2C[C@H](O)CN2CCOCC2)C1 [Example 254, (R)-2-[3-(4-Chloro-3-{4-[(4-chloro-benzylamino)-methyl]-phenylethynyl}-phenyl)-1-(2-hydroxy-3-morpholin-4-yl-propyl)-1,4,6,7-tetrahydro-pyrazolo[4,3-c]pyridin-5-yl]-2-oxo-acetamide]	–	0.24
C[C@H]1COCCN1C[C@H](O)Cn1nc(-c2ccc(Cl)c(C#Cc3ccc(CNCc4ccc(Cl)cc4)cc3)c2)c2c1CCN(C(=O)C(N)=O)C2 [Example 255, 2-{3-(4-Chloro-3-{4-[(4-chloro-benzylamino)-methyl]-phenylethynyl}-phenyl)-1-[(2S)-2-hydroxy-3-((3S)-3-methyl-morpholin-4-yl)-propyl]-1,4,6,7-tetrahydro-pyrazolo[4,3-c]pyridin-5-yl}-2-oxo-acetamide]	–	0.07
C[C@H]1COCCN1C[C@@H](O)Cn1nc(-c2ccc(Cl)c(C#Cc3ccc(CNCc4ccc(Cl)cc4)cc3)c2)c2c1CCN(C(=O)C(N)=O)C2 [Example 256, 2-{3-(4-Chloro-3-{4-[(4-chloro-benzylamino)-methyl]-phenylethynyl}-phenyl)-1-[(2R)-2-hydroxy-3-((3S)-3-methyl-morpholin-4-yl)-propyl]-1,4,6,7-tetrahydro-pyrazolo[4,3-c]pyridin-5-yl}-2-oxo-acetamide]	–	0.05
C[C@H]1COCCN1C[C@H](O)Cn1nc(-c2ccc(Cl)c(C#Cc3ccc(CNCc4ccc(Cl)cc4)cc3)c2)c2c1CCN(C(N)=O)C2 [Example 257, 3-(4-Chloro-3-{4-[(4-chloro-benzylamino)-methyl]-phenylethynyl}-phenyl)-1-[(2S)-2-hydroxy-3-((3S)-3-methyl-morpholin-4-yl)-propyl]-1,4,6,7-tetrahydro-pyrazolo[4,3-c]pyridine-5-carboxylic acid amide]	0.07	–
NC(=O)N1CCc2c(c(-c3ccc(Cl)c(C#Cc4ccc(CNCc5ccc(Cl)cc5)cc4)c3)nn2C[C@@H](O)CN2CCOCC2)C1 [Example 259, (S)-3-(4-Chloro-3-{4-[(4-chloro-benzylamino)-methyl]-phenylethynyl}-phenyl)-1-(2-hydroxy-3-morpholin-4-yl-propyl)-1,4,6,7-tetrahydro-pyrazolo[4,3-c]pyridine-5-carboxylic acid amide]	0.08	–
CS(=O)(=O)N1CCc2c(c(-c3ccc(Cl)c(C#Cc4ccc(CNCc5ccc(Cl)cc5)cc4)c3)nn2C[C@H](O)CN2CCSCC2)C1 [Example 262, (R)-1-[3-(4-Chloro-3-{4-[(4-chloro-benzylamino)-methyl]-phenylethynyl}-phenyl)-5-methanesulfonyl-4,5,6,7-tetrahydro-pyrazolo[4,3-c]pyridin-1-yl]-3-thiomorpholin-4-yl-propan-2-ol]	–	0.12
